The target of assay [1] is T1, Interstitial collagenase (Homo sapiens, UniProt P03956).
T1 sequence (P03956 whole entry): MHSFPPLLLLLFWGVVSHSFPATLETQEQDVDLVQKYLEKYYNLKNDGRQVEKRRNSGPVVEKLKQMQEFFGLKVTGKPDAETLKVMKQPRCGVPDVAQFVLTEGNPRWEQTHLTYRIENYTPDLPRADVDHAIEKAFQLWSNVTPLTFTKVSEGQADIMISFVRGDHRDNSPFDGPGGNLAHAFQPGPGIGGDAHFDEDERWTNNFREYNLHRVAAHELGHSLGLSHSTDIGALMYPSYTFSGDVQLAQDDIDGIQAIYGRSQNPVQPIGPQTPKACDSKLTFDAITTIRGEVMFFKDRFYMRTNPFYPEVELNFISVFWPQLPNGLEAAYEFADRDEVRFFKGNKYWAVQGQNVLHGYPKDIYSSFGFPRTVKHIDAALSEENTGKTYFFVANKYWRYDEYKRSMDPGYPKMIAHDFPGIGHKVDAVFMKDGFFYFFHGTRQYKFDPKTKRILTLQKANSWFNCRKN
Put plainly: Inhibition of matrix metalloprotease-1 (MMP-1).

The target in assay [2] is Matrix metalloproteinase-14 (Homo sapiens, UniProt P50281). Put plainly: Inhibition of matrix metalloprotease-14 (MMP-14).
Assay [3] deals with 72 kDa type IV collagenase (Homo sapiens, UniProt P08253). Put plainly: Inhibition of matrix metalloprotease-2 (MMP-2).
In assay [4] the target is Matrix metalloproteinase-16 (Homo sapiens, UniProt P51512). As to the kind of experiment: Inhibition of matrix metalloprotease-16 (MMP-16).
For assay [5], the target named is T2, Matrix metalloproteinase-26 (Homo sapiens, UniProt Q9NRE1).
T2 sequence (Q9NRE1 whole entry): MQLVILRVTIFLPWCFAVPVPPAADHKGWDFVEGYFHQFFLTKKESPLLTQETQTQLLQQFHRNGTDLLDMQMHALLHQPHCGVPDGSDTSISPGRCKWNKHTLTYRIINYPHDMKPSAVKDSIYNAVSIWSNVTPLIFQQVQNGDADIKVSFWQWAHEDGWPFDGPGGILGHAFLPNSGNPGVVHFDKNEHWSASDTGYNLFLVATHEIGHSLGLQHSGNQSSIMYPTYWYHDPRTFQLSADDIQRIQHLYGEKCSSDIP
Put plainly: Inhibition of matrix metalloprotease-26 (MMP-26).

The target in assay [6] is T3, Matrilysin (Homo sapiens, UniProt P09237).
T3 sequence (P09237 whole entry): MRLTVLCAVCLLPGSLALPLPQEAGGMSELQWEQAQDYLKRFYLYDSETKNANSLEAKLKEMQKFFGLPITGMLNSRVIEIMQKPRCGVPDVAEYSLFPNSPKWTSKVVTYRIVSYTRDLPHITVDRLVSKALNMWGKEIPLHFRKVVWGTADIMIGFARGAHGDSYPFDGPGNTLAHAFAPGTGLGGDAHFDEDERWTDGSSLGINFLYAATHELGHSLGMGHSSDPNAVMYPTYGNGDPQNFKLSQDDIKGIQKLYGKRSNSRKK

Assay [7] addresses Matrix metalloproteinase-9 (Homo sapiens, UniProt P14780). Put plainly: Inhibition of matrix metalloprotease-9 (MMP-9).
Assay [8] has as its target Macrophage metalloelastase (Homo sapiens, UniProt P39900). As to the kind of experiment: Inhibition of matrix metalloprotease-12 (MMP-12).
Assay [9] deals with Matrix metalloproteinase-15 (Homo sapiens, UniProt P51511). As to the kind of experiment: Inhibition of matrix metalloprotease-15 (MMP-15).
Assay [10] concerns the target T3, Matrilysin. Put plainly: Inhibition of matrix metalloprotease-7 (MMP-7).
For assay [11], the target named is T2, Matrix metalloproteinase-26. As to the kind of experiment: Inhibition of matrix metalloprotease-26 (MMP-26) (inactive up to 50 uM).
In assay [12] the target is T1, Interstitial collagenase.

Each structure is given as a SMILES string.

Matrix metalloproteinase-9, sequence (P14780 whole entry): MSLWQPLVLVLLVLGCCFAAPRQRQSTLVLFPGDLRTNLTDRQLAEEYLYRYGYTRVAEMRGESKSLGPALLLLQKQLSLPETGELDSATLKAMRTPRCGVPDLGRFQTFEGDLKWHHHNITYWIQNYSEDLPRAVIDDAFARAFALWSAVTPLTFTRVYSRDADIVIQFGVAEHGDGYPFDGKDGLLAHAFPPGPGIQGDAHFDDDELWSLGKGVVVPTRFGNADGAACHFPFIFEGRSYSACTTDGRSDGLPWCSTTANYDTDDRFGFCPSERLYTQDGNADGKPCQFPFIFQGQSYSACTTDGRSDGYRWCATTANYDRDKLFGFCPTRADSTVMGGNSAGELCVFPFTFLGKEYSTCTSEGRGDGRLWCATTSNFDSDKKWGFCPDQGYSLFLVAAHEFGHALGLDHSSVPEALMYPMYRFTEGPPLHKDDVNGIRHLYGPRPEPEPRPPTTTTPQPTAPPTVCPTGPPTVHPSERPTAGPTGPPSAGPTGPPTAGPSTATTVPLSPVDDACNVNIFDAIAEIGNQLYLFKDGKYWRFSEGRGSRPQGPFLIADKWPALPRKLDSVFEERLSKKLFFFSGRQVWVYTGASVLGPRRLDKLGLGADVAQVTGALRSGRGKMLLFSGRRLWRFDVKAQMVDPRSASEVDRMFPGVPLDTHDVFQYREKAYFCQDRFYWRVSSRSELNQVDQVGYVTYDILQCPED
Macrophage metalloelastase, sequence (P39900 whole entry): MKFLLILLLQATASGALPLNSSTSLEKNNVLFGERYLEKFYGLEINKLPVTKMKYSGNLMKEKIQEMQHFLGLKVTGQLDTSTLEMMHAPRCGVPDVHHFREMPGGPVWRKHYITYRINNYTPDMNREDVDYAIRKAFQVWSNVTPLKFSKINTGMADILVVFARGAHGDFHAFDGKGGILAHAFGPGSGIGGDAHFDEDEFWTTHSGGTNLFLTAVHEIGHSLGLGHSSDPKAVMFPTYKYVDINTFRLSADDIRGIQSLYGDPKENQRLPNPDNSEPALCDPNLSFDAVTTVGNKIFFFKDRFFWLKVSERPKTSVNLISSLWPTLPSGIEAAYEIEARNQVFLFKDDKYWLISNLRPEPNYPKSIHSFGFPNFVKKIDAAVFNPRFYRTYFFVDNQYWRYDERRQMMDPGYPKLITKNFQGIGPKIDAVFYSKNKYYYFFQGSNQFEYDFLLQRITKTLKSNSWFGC
72 kDa type IV collagenase, sequence (P08253 whole entry): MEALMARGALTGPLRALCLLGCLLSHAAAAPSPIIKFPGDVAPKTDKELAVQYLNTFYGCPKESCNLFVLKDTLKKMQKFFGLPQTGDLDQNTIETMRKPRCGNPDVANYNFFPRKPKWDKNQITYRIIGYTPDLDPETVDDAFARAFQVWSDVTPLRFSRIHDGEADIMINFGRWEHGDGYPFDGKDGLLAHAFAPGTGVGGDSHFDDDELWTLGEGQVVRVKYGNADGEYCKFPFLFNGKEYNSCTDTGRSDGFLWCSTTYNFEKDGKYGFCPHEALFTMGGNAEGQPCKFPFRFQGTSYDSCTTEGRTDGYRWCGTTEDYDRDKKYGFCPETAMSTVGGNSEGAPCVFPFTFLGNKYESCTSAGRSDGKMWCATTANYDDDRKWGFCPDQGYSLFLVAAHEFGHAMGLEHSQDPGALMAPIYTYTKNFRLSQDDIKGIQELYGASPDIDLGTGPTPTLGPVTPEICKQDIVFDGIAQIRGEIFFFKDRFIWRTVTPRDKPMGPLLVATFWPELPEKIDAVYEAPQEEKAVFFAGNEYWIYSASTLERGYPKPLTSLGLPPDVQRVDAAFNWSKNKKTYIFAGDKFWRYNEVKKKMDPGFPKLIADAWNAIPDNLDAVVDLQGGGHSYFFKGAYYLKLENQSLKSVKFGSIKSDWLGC
Matrix metalloproteinase-15, sequence (P51511 whole entry): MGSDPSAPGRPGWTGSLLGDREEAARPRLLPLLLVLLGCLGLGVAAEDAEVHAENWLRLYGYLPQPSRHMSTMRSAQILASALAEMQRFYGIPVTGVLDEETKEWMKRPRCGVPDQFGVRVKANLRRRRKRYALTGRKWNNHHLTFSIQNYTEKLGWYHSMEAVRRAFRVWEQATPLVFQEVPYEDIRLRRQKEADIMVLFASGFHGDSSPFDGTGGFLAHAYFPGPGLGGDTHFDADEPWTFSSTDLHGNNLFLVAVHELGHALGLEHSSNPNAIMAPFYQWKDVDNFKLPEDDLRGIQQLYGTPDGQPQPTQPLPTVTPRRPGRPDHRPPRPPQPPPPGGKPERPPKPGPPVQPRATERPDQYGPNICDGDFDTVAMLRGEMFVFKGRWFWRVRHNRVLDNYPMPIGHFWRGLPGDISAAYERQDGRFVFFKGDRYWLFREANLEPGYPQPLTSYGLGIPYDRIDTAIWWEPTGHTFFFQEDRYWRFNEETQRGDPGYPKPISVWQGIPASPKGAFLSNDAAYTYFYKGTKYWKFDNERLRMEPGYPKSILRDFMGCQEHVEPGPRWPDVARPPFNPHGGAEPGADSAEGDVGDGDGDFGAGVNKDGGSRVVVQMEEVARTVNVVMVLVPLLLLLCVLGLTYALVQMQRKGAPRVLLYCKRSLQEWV
Matrix metalloproteinase-16, sequence (P51512 whole entry): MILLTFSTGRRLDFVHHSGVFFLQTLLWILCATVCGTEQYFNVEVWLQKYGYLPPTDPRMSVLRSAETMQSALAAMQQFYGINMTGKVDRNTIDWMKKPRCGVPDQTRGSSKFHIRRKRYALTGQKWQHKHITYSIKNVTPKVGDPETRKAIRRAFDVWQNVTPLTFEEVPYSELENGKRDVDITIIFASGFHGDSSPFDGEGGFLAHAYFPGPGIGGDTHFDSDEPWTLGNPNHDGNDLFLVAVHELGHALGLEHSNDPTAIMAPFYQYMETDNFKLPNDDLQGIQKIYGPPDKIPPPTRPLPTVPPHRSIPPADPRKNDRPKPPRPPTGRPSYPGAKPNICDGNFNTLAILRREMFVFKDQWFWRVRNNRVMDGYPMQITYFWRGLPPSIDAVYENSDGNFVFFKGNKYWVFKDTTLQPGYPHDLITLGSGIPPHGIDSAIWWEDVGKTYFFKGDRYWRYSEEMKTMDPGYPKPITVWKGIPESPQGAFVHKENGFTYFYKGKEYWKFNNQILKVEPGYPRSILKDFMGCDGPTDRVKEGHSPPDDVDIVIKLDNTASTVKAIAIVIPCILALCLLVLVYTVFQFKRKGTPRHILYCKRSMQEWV

What is called IC50 is the midpoint of a concentration-inhibition curve. Low values mean higher potency, high ones lower potency. As for `O=C(NO)C1c2ccc(O)cc2CCN1S(=O)(=O)c1ccccc1` (configuration not stated), the IC50 in assay [1] is 6320 nM; in assay [2] it was 1100 nM; in [3], 430 nM; in [4] it was 184 nM; in assay [5] it was 858 nM; in assay [6] it was “Not Active”. For the same compound, the IC50 in assay [7] was 335 nM; in assay [8], 421 nM; in assay [9], 218 nM.

Turning to `Cc1ccc(S(=O)(=O)N2CCc3cc(OCc4ccccc4)ccc3C2C(=O)NO)cc1` (configuration not stated), the half-maximal inhibitory concentration (IC50) turned out to be 462 nM in [1]; 62 nM in assay [2]; 33 nM in assay [3]; 12000 nM in [10]; 56 nM in assay [4]; 2050 nM in [5]. For the same compound, the IC50 in assay [7] is 130 nM; in assay [8] it was 72 nM; in assay [9], 44 nM.

`O=C(NO)C1c2ccc(O)cc2CCN1S(=O)(=O)c1ccc([N+](=O)[O-])cc1` (configuration not stated): the IC50 stood at 41 nM in assay [1]; 521 nM in assay [2]; 76 nM in [3]; 21400 nM in assay [10]; 177 nM in [4]; 791 nM in assay [5]. Further, the IC50 in assay [7] was found to be 258 nM; in assay [8], 59 nM; in assay [9], 126 nM.

On to `O=C(NO)C1c2ccc(OCc3ccccc3)cc2CCN1S(=O)(=O)c1cc(Cl)ccc1Cl` (configuration not stated), for which the IC50 was 20800 nM in [2]; 1100 nM in assay [3]; “Not Active” in assay [11]; 4630 nM in [4]; “Not Active” in assay [12]; “Not Active” in assay [6]. Also, the IC50 in assay [7] turned out to be 3120 nM; in assay [8], 931 nM; in [9], 7300 nM.

As to `O=C(NO)C1c2ccc(OCc3ccccc3)cc2CCN1S(=O)(=O)c1ccccc1` (configuration not stated), the IC50 worked out at 452 nM in assay [1]; 39 nM in assay [2]; 24 nM in [3]; 7140 nM in [10]; 35 nM in [4]; 1450 nM in assay [5]. Moreover, the results for the IC50 in assay [7], in assay [8] and in assay [9] were 35 nM, 57 nM and 17 nM, respectively.

`Cc1ccc(S(=O)(=O)N2CCc3cc(O)ccc3C2C(=O)NO)cc1` (configuration not stated): the IC50 in [1] was 152 nM; in assay [2], 52 nM; in assay [3], 18 nM; in [10] it was 10500 nM; in assay [4], 21 nM; in assay [5], 97 nM. For the same compound, the IC50 in assay [7] was found to be 40 nM; in [8] it was 29 nM; in assay [9] it was 19 nM.

As to `COc1cc2c(cc1O)CCN(S(=O)(=O)c1ccccc1)C2C(=O)NO` (configuration not stated), the IC50 in assay [1] came out at 595 nM; in assay [2] it was 867 nM; in assay [3] it was 27 nM; in assay [10], 10700 nM; in assay [4], 40 nM; in [5], 146 nM. The IC50 was found to be 100 nM in assay [7], 65 nM in assay [8] and 29 nM in assay [9].

For `COc1ccc(S(=O)(=O)N2CCc3cc(O)c(OC)cc3C2C(=O)NO)cc1` (configuration not stated), the IC50 is 123 nM in assay [1]; 68 nM in assay [2]; 26 nM in assay [3]; 3190 nM in assay [10]; 16 nM in assay [4]; 86 nM in [5]. In addition, the IC50 in assay [7] came to 46 nM; in [8], 20 nM; in [9], 6 nM.

Take `Nc1ccc(S(=O)(=O)N2CCc3cc(O)ccc3C2C(=O)NO)cc1` (configuration not stated): the IC50 is 13200 nM in assay [1]; 835 nM in assay [2]; 150 nM in assay [3]; 202 nM in assay [4]; 492 nM in [5]; “Not Active” in assay [6]. Further, the IC50 stood at 248 nM in assay [7], 191 nM in [8] and 385 nM in [9].

As to `COc1ccc(S(=O)(=O)N2CCc3cc(O)ccc3C2C(=O)NO)cc1` (configuration not stated), the IC50 in assay [1] is 15000 nM; in [2], 3110 nM; in assay [3], 724 nM; in assay [4] it was 1680 nM; in assay [5], 7510 nM; in assay [6], “Not Active”. Also, the IC50 in assay [7] turned out to be 4100 nM; in [8], 7690 nM; in [9], 621 nM.

Consider `COc1ccc(S(=O)(=O)N2CCc3cc(OCc4ccccc4)ccc3C2C(=O)NO)cc1` (configuration not stated), for which the IC50 worked out at 88 nM in assay [1]; 34 nM in [2]; 16 nM in assay [3]; 2420 nM in [10]; 22 nM in [4]; 744 nM in assay [5]. The IC50 came to 30 nM in assay [7], 57 nM in [8] and 4 nM in [9].

For `O=C(NO)C1c2ccc(O)cc2CCN1S(=O)(=O)c1cc(Cl)ccc1Cl` (configuration not stated), the IC50 in [2] is 4610 nM; in [3] it was 853 nM; in assay [10] it was 21400 nM; in assay [4], 1840 nM; in assay [5] it was 7900 nM; in assay [12], “Not Active”. The concentration for half-maximal inhibition (IC50) in assay [7] came to 1880 nM; in [8], 170 nM; in [9], 1790 nM.

On to `CNC(=O)[C@H](Cc1c[nH]c2ccccc12)NC(=O)[C@@H](CC(=O)NO)CC(C)C` [ILOMASTAT], for which the IC50 came to 23 nM in [2], 8 nM in assay [4], 17 nM in assay [5] and 13 nM in [8].

The values are drawn from ChEMBL document CHEMBL1146709, “Tetrahydroisoquinoline based sulfonamide hydroxamates as potent matrix metalloproteinase inhibitors” (Bioorg Med Chem Lett, 2004).
